“And” between values parts separate entries of the source, which are not always exact repeats. Equal values may be shown once.
Test: molar heat capacity at constant pressure
Settings: 101.33 kPa, Vacuum adiabatic calorimetry

CCC[n+]1ccn(C)c1.[Br-] [1-methyl-3-propylimidazolium bromide]
molar heat capacity at constant pressure
Settings	Crystal 2	Glass
71.72 K	–	90.74 J/K/mol
73.18 K	86.57 J/K/mol	–
73.83 K	–	92.54 J/K/mol
75.5 K	88.58 J/K/mol	–
75.93 K	–	94.45 J/K/mol
77.81 K	90.59 J/K/mol	–
78.04 K	–	96.34 J/K/mol
78.3 K	90.96 J/K/mol	–
78.68 K	91.25 J/K/mol	–
79.18 K	–	97.3 J/K/mol
80 K	92.3 J/K/mol	97.87 J/K/mol
80.13 K	92.58 J/K/mol	–
80.17 K	–	98.2 J/K/mol
80.36 K	92.62 J/K/mol	–
80.94 K	93.01 J/K/mol	–
81.21 K	–	98.9 J/K/mol
82.27 K	94.04 J/K/mol	–
82.29 K	–	99.76 J/K/mol
82.46 K	94.26 J/K/mol	–
82.87 K	94.47 J/K/mol	–
83.14 K	–	100.3 J/K/mol
84.2 K	95.47 J/K/mol	–
84.42 K	–	101.2 J/K/mol
84.8 K	95.84 J/K/mol and 95.9 J/K/mol	–
85.07 K	–	101.7 J/K/mol
86.13 K	96.85 J/K/mol	–
86.73 K	97.28 J/K/mol	–
87.01 K	–	103.1 J/K/mol
88.08 K	98.24 J/K/mol	–
88.67 K	98.67 J/K/mol	–
88.94 K	–	104.6 J/K/mol
90 K	99.64 J/K/mol	105.4 J/K/mol
90.04 K	99.66 J/K/mol	–
90.6 K	100 J/K/mol	–
90.88 K	–	106 J/K/mol
92.01 K	101.1 J/K/mol	–
92.54 K	101.4 J/K/mol	–
92.82 K	–	107.4 J/K/mol
93.99 K	102.5 J/K/mol	–
94.48 K	102.8 J/K/mol	–
94.77 K	–	108.7 J/K/mol
95.98 K	103.8 J/K/mol	–
96.43 K	104.1 J/K/mol	–
96.72 K	–	110.1 J/K/mol
97.97 K	105.1 J/K/mol	–
98.38 K	105.4 J/K/mol	–
98.66 K	–	111.4 J/K/mol
99.98 K	106.5 J/K/mol	–
100 K	106.4 J/K/mol	112.3 J/K/mol
100.34 K	106.7 J/K/mol	–
100.62 K	–	112.7 J/K/mol
101.99 K	107.7 J/K/mol	–
102.29 K	107.9 J/K/mol	–
102.57 K	–	114 J/K/mol
104.01 K	109 J/K/mol	–
104.25 K	109.1 J/K/mol	–
104.53 K	–	115.3 J/K/mol
106.04 K	110.2 J/K/mol	–
106.21 K	110.3 J/K/mol	–
106.49 K	–	116.5 J/K/mol
108.08 K	111.5 J/K/mol	–
108.17 K	111.6 J/K/mol	–
108.45 K	–	117.8 J/K/mol
110 K	112.6 J/K/mol	118.7 J/K/mol
110.12 K	112.7 J/K/mol	–
110.14 K	112.7 J/K/mol	–
110.41 K	–	119 J/K/mol
112.1 K	113.9 J/K/mol	–
112.17 K	113.9 J/K/mol	–
112.38 K	–	120.2 J/K/mol
114.07 K	115 J/K/mol	–
114.22 K	115.1 J/K/mol	–
114.35 K	–	121.4 J/K/mol
116.04 K	116.2 J/K/mol	–
116.28 K	116.3 J/K/mol	–
116.32 K	–	122.6 J/K/mol
118.01 K	117.3 J/K/mol	–
118.29 K	–	123.8 J/K/mol
118.34 K	117.5 J/K/mol	–
119.98 K	118.4 J/K/mol	–
120 K	118.4 J/K/mol	124.8 J/K/mol
120.27 K	–	124.9 J/K/mol
120.41 K	118.7 J/K/mol	–
121.96 K	119.4 J/K/mol	–
122.24 K	–	126.1 J/K/mol
122.48 K	119.8 J/K/mol	–
123.94 K	120.6 J/K/mol	–
124.22 K	–	127.2 J/K/mol
124.56 K	121 J/K/mol	–
125.91 K	121.7 J/K/mol	–
126.2 K	–	128.4 J/K/mol
126.63 K	122.1 J/K/mol	–
127.9 K	122.8 J/K/mol	–
128.18 K	–	129.5 J/K/mol
128.72 K	123.2 J/K/mol	–
129.88 K	123.8 J/K/mol	–
130 K	123.9 J/K/mol	130.6 J/K/mol
130.17 K	–	130.7 J/K/mol
130.8 K	124.4 J/K/mol	–
131.86 K	124.9 J/K/mol	–
132.15 K	–	131.8 J/K/mol
132.89 K	125.5 J/K/mol	–
133.84 K	126 J/K/mol	–
134.14 K	–	132.9 J/K/mol
134.99 K	126.6 J/K/mol	–
135.84 K	127 J/K/mol	–
136.13 K	–	134 J/K/mol
137.08 K	127.7 J/K/mol	–
137.83 K	128 J/K/mol	–
138.12 K	–	135.2 J/K/mol
139.18 K	128.7 J/K/mol	–
139.83 K	129.1 J/K/mol	–
140 K	129.2 J/K/mol	136.2 J/K/mol
140.12 K	–	136.3 J/K/mol
141.28 K	129.8 J/K/mol	–
141.83 K	130.1 J/K/mol	–
142.11 K	–	137.4 J/K/mol
143.39 K	130.9 J/K/mol	–
143.83 K	131.1 J/K/mol	–
144.11 K	–	138.5 J/K/mol
145.49 K	132 J/K/mol	–
145.83 K	132.1 J/K/mol	–
146.11 K	–	139.7 J/K/mol
147.6 K	133 J/K/mol	–
